# Target: human MGL from HeLa cells (Homo sapiens (Human), UniProt Q99685)
# Assay: MGL in vitro activity assay ([glycerol-1,3-3H]-oleoyl glycerol hydrolysis, activated carbon filtration)
# Format: biochemical
# Settings: 300 nM [Glycerol-1,3-3H]-oleoyl glycerol, one hour
# Procedure, shortened: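 Activity measured as tritium in the flow-through after activated carbon filtration of a 1 h reaction containing 300 nM 3H-oleoyl glycerol, compound and HeLa-derived human MGL. Compounds screened at 10 μM; IC50 series start at an empirically chosen highest concentration.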
# Chain of human MGL from HeLa cells (Q99685 whole entry): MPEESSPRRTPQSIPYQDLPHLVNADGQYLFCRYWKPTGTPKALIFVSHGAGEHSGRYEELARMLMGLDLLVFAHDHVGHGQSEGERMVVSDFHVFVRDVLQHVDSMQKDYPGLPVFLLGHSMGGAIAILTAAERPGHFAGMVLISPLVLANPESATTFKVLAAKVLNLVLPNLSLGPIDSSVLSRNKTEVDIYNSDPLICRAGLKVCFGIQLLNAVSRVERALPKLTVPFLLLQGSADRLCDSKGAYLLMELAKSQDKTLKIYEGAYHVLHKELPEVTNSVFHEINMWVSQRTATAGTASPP
row,SMILES,IC50
1,"CC(C)(C)c1ccnc(CC2CC3(C2)CN(C(=O)[C@H]2C[C@@](C)(O)C2)C3)c1 [Example 190, (6-((4-(tert-Butyl)pyridin-2-yl)methyl)-2-azaspiro[3.3]heptan-2-yl)((1s,3s)-3-hydroxy-3-methylcyclobutyl)methanone]",73 nM
2,"COc1cccc(CC2CC3(C2)CN(C(=O)[C@H]2C[C@@](C)(O)C2)C3)n1 [Example 191, ((1s,3s)-3-Hydroxy-3-methylcyclobutyl)(6-((6-methoxypyridin-2-yl)methyl)-2-azaspiro[3.3]heptan-2-yl)methanone]",159 nM
3,"C[C@]1(O)C[C@@H](C(=O)N2CC3(CC(Cc4ccc(C(F)(F)F)cc4)C3)C2)C1 [Example 195, ((1s,3s)-3-Hydroxy-3-methylcyclobutyl)(6-(4-(trifluoromethyl)benzyl)-2-azaspiro[3.3]heptan-2-yl)methanone]",4.2 nM
4,"COc1cccc(CC2CC3(C2)CN(C(=O)[C@H]2C[C@@](C)(O)C2)C3)c1 [Example 197, ((1s,3s)-3-Hydroxy-3-methylcyclobutyl)(6-(3-methoxybenzyl)-2-azaspiro[3.3]heptan-2-yl)methanone]",64 nM
5,"C[C@]1(O)C[C@@H](C(=O)N2CC3(CC(Cc4ccc5ccccc5n4)C3)C2)C1 [Example 198, ((1s,3s)-3-Hydroxy-3-methylcyclobutyl)(6-(quinolin-2-ylmethyl)-2-azaspiro[3.3]heptan-2-yl)methanone]",56 nM
6,"C[C@]1(O)C[C@@H](C(=O)N2CC3(CC(Cc4ccccc4C(F)(F)F)C3)C2)C1 [Example 199, ((1s,3s)-3-Hydroxy-3-methylcyclobutyl)(6-(2-(trifluoromethyl)benzyl)-2-azaspiro[3.3]heptan-2-yl)methanone]",4.1 nM
7,"C[C@]1(O)C[C@@H](C(=O)N2CC3(CC(Cc4ccncc4)C3)C2)C1 [Example 206, ((1s,3s)-3-Hydroxy-3-methylcyclobutyl)(6-(pyridin-4-ylmethyl)-2-azaspiro[3.3]heptan-2-yl)methanone]",1140 nM
8,"CC(C)(C)c1ccccc1CC1CC2(C1)CN(C(=O)[C@H]1C[C@@](C)(O)C1)C2 [Example 208, (6-(2-(tert-Butyl)benzyl)-2-azaspiro[3.3]heptan-2-yl)((1s,3s)-3-hydroxy-3-methylcyclobutyl)methanone]",5.3 nM
9,"CC(C)c1c(CC2CC3(C2)CN(C(=O)[C@H]2C[C@@](C)(O)C2)C3)cccc1C(F)(F)F [Example 210, ((1s,3s)-3-Hydroxy-3-methylcyclobutyl)(6-(2-isopropyl-3-(trifluoromethyl)benzyl)-2-azaspiro[3.3]heptan-2-yl)methanone]",0.8 nM
10,"Cc1cc(CC2CC3(C2)CN(C(=O)[C@H]2C[C@@](C)(O)C2)C3)ccc1C(F)(F)F [Example 212, ((1s,3s)-3-Hydroxy-3-methylcyclobutyl)(6-(3-methyl-4-(trifluoromethyl)benzyl)-2-azaspiro[3.3]heptan-2-yl)methanone]",0.3 nM
11,"Cc1ccc(CC2CC3(C2)CN(C(=O)[C@H]2C[C@@](C)(O)C2)C3)c(C(F)(F)F)c1 [Example 213, ((1s,3s)-3-Hydroxy-3-methylcyclobutyl)(6-(4-methyl-2-(trifluoromethyl)benzyl)-2-azaspiro[3.3]heptan-2-yl)methanone]",4.1 nM
12,"Cn1nc(C(F)(F)F)cc1CC1CC2(C1)CN(C(=O)[C@H]1C[C@@](C)(O)C1)C2 [Example 214, ((1s,3s)-3-Hydroxy-3-methylcyclobutyl)(6-((1-methyl-3-(trifluoromethyl)-1H-pyrazol-5-yl)methyl)-2-azaspiro[3.3]heptan-2-yl)methanone]",417 nM
13,"COc1ccc(CC2CC3(C2)CN(C(=O)[C@H]2C[C@@](C)(O)C2)C3)c(C(F)(F)F)c1 [Example 217, ((1s,3s)-3-Hydroxy-3-methylcyclobutyl)(6-(4-methoxy-2-(trifluoromethyl)benzyl)-2-azaspiro[3.3]heptan-2-yl)methanone]",3.5 nM
14,"C[C@]1(O)C[C@@H](C(=O)N2CC3(CC(Cc4cccc(C5CC5)c4)C3)C2)C1 [Example 218, (6-(3-Cyclopropylbenzyl)-2-azaspiro[3.3]heptan-2-yl)((1s,3s)-3-hydroxy-3-methylcyclobutyl)methanone]",6.3 nM
15,"C[C@]1(O)C[C@@H](C(=O)N2CC3(CC(Cc4ccc(C5CC5)cc4)C3)C2)C1 [Example 219, (6-(4-Cyclopropylbenzyl)-2-azaspiro[3.3]heptan-2-yl)((1s,3s)-3-hydroxy-3-methylcyclobutyl)methanone]",1.2 nM
16,"C[C@]1(O)C[C@@H](C(=O)N2CC3(CC(Cc4ccc(OC(F)(F)F)cc4)C3)C2)C1 [Example 220, ((1s,3s)-3-Hydroxy-3-methylcyclobutyl)(6-(4-(trifluoromethoxy)benzyl)-2-azaspiro[3.3]heptan-2-yl)methanone]",1.1 nM
17,"C[C@]1(O)C[C@@H](C(=O)N2CC3(CC(Cc4ccc(OC(F)F)cc4)C3)C2)C1 [Example 221, (6-(4-(Difluoromethoxy)benzyl)-2-azaspiro[3.3]heptan-2-yl)((1s,3s)-3-hydroxy-3-methylcyclobutyl)methanone]",5.1 nM
18,"CCc1cccc(CC2CC3(C2)CN(C(=O)[C@H]2C[C@@](C)(O)C2)C3)c1 [Example 222, (6-(3-Ethylbenzyl)-2-azaspiro[3.3]heptan-2-yl)((1s,3s)-3-hydroxy-3-methylcyclobutyl)methanone]",5.1 nM
19,"Cn1ccc2ccc(CC3CC4(C3)CN(C(=O)[C@H]3C[C@@](C)(O)C3)C4)nc21 [Example 224, ((1s,3s)-3-Hydroxy-3-methylcyclobutyl)(6-((1-methyl-1H-pyrrolo[2,3-b]pyridin-6-yl)methyl)-2-azaspiro[3.3]heptan-2-yl)methanone]",27 nM
20,"Cn1cc(CC2CC3(C2)CN(C(=O)[C@H]2C[C@@](C)(O)C2)C3)c(C(F)(F)F)n1 [Example 225, ((1s,3s)-3-Hydroxy-3-methylcyclobutyl)(6-((1-methyl-3-(trifluoromethyl)-1H-pyrazol-4-yl)methyl)-2-azaspiro[3.3]heptan-2-yl)methanone]",119 nM
21,"Cc1c(F)cccc1CC1CC2(C1)CN(C(=O)[C@H]1C[C@@](C)(O)C1)C2 [Example 227, (6-(3-Fluoro-2-methylbenzyl)-2-azaspiro[3.3]heptan-2-yl)((1s,3s)-3-hydroxy-3-methylcyclobutyl)methanone]",20 nM

# Further lines, results first:
row,IC50,SMILES
1,22 nM,"COc1ccc(CC2CC3(C2)CN(C(=O)[C@H]2C[C@@](C)(O)C2)C3)cc1 [Example 192, ((1s,3s)-3-Hydroxy-3-methylcyclobutyl)(6-(4-methoxybenzyl)-2-azaspiro[3.3]heptan-2-yl)methanone]"
2,5.8 nM,"C[C@]1(O)C[C@@H](C(=O)N2CC3(CC(Cc4cccc(C(F)(F)F)c4)C3)C2)C1 [Example 193, ((1s,3s)-3-Hydroxy-3-methylcyclobutyl)(6-(3-(trifluoromethyl)benzyl)-2-azaspiro[3.3]heptan-2-yl)methanone]"
3,4.9 nM,"C[C@]1(O)C[C@@H](C(=O)N2CC3(CC(Cc4cccc(OC(F)(F)F)c4)C3)C2)C1 [Example 194, ((1s,3s)-3-Hydroxy-3-methylcyclobutyl)(6-(3-(trifluoromethoxy)benzyl)-2-azaspiro[3.3]heptan-2-yl)methanone]"
4,2.8 nM,"C[C@]1(O)C[C@@H](C(=O)N2CC3(CC(Cc4ccccc4OC(F)(F)F)C3)C2)C1 [Example 196, ((1s,3s)-3-Hydroxy-3-methylcyclobutyl)(6-(2-(trifluoromethoxy)benzyl)-2-azaspiro[3.3]heptan-2-yl)methanone]"
5,0.6 nM,"Cc1cc(CC2CC3(C2)CN(C(=O)[C@H]2C[C@@](C)(O)C2)C3)ccc1C1CC1 [Example 202, (6-(4-Cyclopropyl-3-methylbenzyl)-2-azaspiro[3.3]heptan-2-yl)((1s,3s)-3-hydroxy-3-methylcyclobutyl)methanone]"
6,1.7 nM,"Cc1cccc(CC2CC3(C2)CN(C(=O)[C@H]2C[C@@](C)(O)C2)C3)c1C1CC1 [Example 207, (6-(2-Cyclopropyl-3-methylbenzyl)-2-azaspiro[3.3]heptan-2-yl)((1s,3s)-3-hydroxy-3-methylcyclobutyl)methanone]"
7,2.2 nM,"Cc1cccc(CC2CC3(C2)CN(C(=O)[C@H]2C[C@@](C)(O)C2)C3)c1C(F)(F)F [Example 209, ((1s,3s)-3-Hydroxy-3-methylcyclobutyl)(6-(3-methyl-2-(trifluoromethyl)benzyl)-2-azaspiro[3.3]heptan-2-yl)methanone]"
8,4.1 nM,"Cc1ccc(C(F)(F)F)c(CC2CC3(C2)CN(C(=O)[C@H]2C[C@@](C)(O)C2)C3)c1 [Example 211, ((1s,3s)-3-Hydroxy-3-methylcyclobutyl)(6-(5-methyl-2-(trifluoromethyl)benzyl)-2-azaspiro[3.3]heptan-2-yl)methanone]"
9,43 nM,"Cn1ncc2ccc(CC3CC4(C3)CN(C(=O)[C@H]3C[C@@](C)(O)C3)C4)cc21 [Example 215, ((1s,3s)-3-Hydroxy-3-methylcyclobutyl)(6-((1-methyl-1H-indazol-6-yl)methyl)-2-azaspiro[3.3]heptan-2-yl)methanone]"
10,12 nM,"COc1ccccc1CC1CC2(C1)CN(C(=O)[C@H]1C[C@@](C)(O)C1)C2 [Example 216, ((1s,3s)-3-Hydroxy-3-methylcyclobutyl)(6-(2-methoxybenzyl)-2-azaspiro[3.3]heptan-2-yl)methanone]"
11,169 nM,"C[C@]1(O)C[C@@H](C(=O)N2CC3(CC(Cc4cccc(C(F)(F)F)n4)C3)C2)C1 [Example 223, ((1s,3s)-3-Hydroxy-3-methylcyclobutyl)(6-((6-(trifluoromethyl)pyridin-2-yl)methyl)-2-azaspiro[3.3]heptan-2-yl)methanone]"
12,2.1 nM,"Cc1cccc(C(F)(F)F)c1CC1CC2(C1)CN(C(=O)[C@H]1C[C@@](C)(O)C1)C2 [Example 226, ((1s,3s)-3-Hydroxy-3-methylcyclobutyl)(6-(2-methyl-6-(trifluoromethyl)benzyl)-2-azaspiro[3.3]heptan-2-yl)methanone]"

# Reference: patent US11802111B2, “Cyclobutyl amide monoacylglycerol lipase modulators” (Janssen Pharmaceutica NV, priority 2020, dated 2023)
